{"source": "patent US20140315972A1", "about": "“RS)-2-(2-oxo-4-phenylpyrrolidin-1-yl)acetamide compound having modulatory activity with a commensurate effect, pharmaceutical substance (variants) and its application, composition (variants) thereof” (priority 2011, published 2014)", "system": "mice", "assay": "Spontaneous tumors in mice at autopsy", "type": "in vivo", "details": "for spontaneous tumors, Number, in %: mice, untreated control = 100", "protocol": "The maximum life span (MLS) of mice according to our long-term statistical observations is 2.7-3, 2 years, i.e. in average 2.95 years or 1077 days. For this study we selected mice (10 individuals per group), males with dominant behavior in mixed groups, that safely survived to 985 days without signs of pronounced senility and with satisfactory orientation-exploratory behavior, determined by the “open field test” method. Phenotropil in doses of 25, 50 and 100 mg/kg was administered orally with 5.0% glucose solution. Glucose solution was used solely to improve the solubility of the drug. One control group received the glucose solution and the second one—distilled water. The third control group was not treated.\nThe greatest effect (Table 18) was obtained after treatment with Phenotropil in doses of 25 mg/kg (23.3%) and 100 mg/kg (24.0%). […] With a sample of 30 individuals in total in the three groups, we can talk about a high reliability of the findings.", "note": "Marks after values point to notes of the source that are not given here.", "data": [{"smiles": "NC(=O)CN1CC(c2ccccc2)CC1=O", "note": "(racemic) [Compound 1, (RS)-2-(2-oxo-4-phenylpyrrolidine-1-yl)acetamide]", "values": [{"measurement": "incidence and severity of spontaneous tumors lower by", "setting": "100 mg/kg", "result": 2.37, "unit": "times"}, {"measurement": "spontaneous tumors, Number, in %", "setting": "25 mg/kg + 5.0% glucose solution", "result": "57.0* %"}, {"measurement": "spontaneous tumors, Number, in %", "setting": "50 mg/kg + 5.0% glucose solution", "result": "74.5* %"}, {"measurement": "spontaneous tumors, Number, in %", "setting": "100 mg + 5.0% glucose solution", "result": "42.2* %"}]}]}
